Laboratory results taken from patent US8853246B2 (Dow AgroSciences LLC, priority 2009, dated 2014).
Where two headings read alike, the source gives them in different places.

Key:
[1] = tested on: Sweetpotato Whitefly-Crawler (Bemisia Tabaci); assay: Insecticidal test for sweetpotato whitefly-crawler in foliar spray assay (col. BEMITA); assay type: in vivo; conditions: for pest or weed control at 200 ppm: Bemisia tabaci, read-out: BEMITA 200 ppm (Corrected % Control, rating)
Summary of the method: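 Percent control, Abbott-corrected against diluent-sprayed plants, from microscope counts of live nymphs 8-9 days after treatment. Test solution at 200 ppm in 0.025% aqueous Tween 20 applied to both leaf sides of egg-infested cotton after a 5-6 day hatch period (82° F, 50% RH).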

[2] = tested on: Cotton Aphid (Aphis Gossypii); assay: Insecticidal test for cotton aphid in foliar spray assay (col. APHIGO); assay type: in vivo; conditions: for pest or weed control at 200 ppm: Aphis gossypii, 72 h, read-out: APHIGO 200 ppm (Corrected % Control, rating)
Method: The compounds were tested against cotton aphid, green peach aphid, and sweet potato whitefly using procedures described in the following examples and reported in Table 2.
In each case of Table 2, the rating scale is as follows at 200 ppm.
Insecticidal Test for Cotton Aphid (Aphis Gossypii) in Foliar Spray Assay
Squash or cotton seedlings with fully expanded cotyledon leaves were trimmed to one cotyledon per plant and infested with cotton aphid (wingless adult and nymph) one day prior to chemical application. Each plant was examined before chemical application to ensure uniform infestation (ca. 30-70 aphids per plant). Compounds (2 mg) were dissolved in 2 mL of acetone/methanol (1:1) solvent, forming stock solutions of 1000 ppm. The stock solutions were diluted 5× with 0.025% Tween 20 in H2O to obtain a solution at 200 ppm. A hand-held Devilbiss aspirator type sprayer was used to apply the spray solutions until runoff to both sides of the squash cotyledon leaves. Four plants (4 replications) were used for each concentration of each compound. Reference plants (solvent check) were sprayed with the diluent only. Treated plants were held in a holding room for three days at approximately 25° C. and 40% RH before the number of live aphids on each plant was recorded. Insecticidal activity was measured by Corrected % Control using Abbott's correction formula and presented in Table 2 (see col. “APHIGO”): Corrected % Control=100*(X−Y)/X • where X=No. of live aphids on solvent check plants • Y=No. of live aphids on treated plants

[3] = tested on: Green Peach Aphid (Myzus Persicae); assay: Insecticidal test for green peach aphid in foliar spray assay (col. MYZUPE); assay type: in vivo; conditions: for pest or weed control at 200 ppm: Myzus persicae, 72 h, read-out: MYZUPE 200 ppm (Corrected % Control, rating)
Summary of the method: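 Corrected % control derives from microscope counts of live aphids per plant, treated against diluent-only checks, 3 days after foliar spraying at ~25 °C and 40% RH. Test solution was 200 ppm in 0.025% aqueous Tween 20, applied to both leaf sides of infested cabbage seedlings, four pots each.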

Row | Structure (SMILES) | pest or weed control at 200 ppm ([1]; Abbott's correction formula) [%] | melting point [°C] | pest or weed control at 200 ppm ([3]; Abbott's correction formula) [%] | also measured
1 | CSCCC(=O)N(C)c1cnc(-c2cccnc2)s1 [Compound 19, N-methyl-3-methylsulfanyl-N-(2-pyridin-3-yl-thiazol-5-yl)-propionamide] | – | – | – | pest or weed control at 200 ppm ([1]; sweetpotato whitefly-crawler): < 80%; pest or weed control at 200 ppm [2]: < 80%; pest or weed control at 200 ppm ([3]; green peach aphid): 80 to 100%
2 | CCN(C(=O)C(C)CSC)c1sc(-c2cccnc2)nc1C (stereo not drawn) [Compound 210] | – | – | – | pest or weed control at 200 ppm ([1]; sweetpotato whitefly-crawler): 80 to 100%; pest or weed control at 200 ppm [2]: 80 to 100%; pest or weed control at 200 ppm ([3]; green peach aphid): 80 to 100%
3 | CSCC(C)C(=O)N(C)c1sc(-c2cccnc2)nc1Cl (stereo not drawn) [Compound 227, N-(4-chloro-2-pyridin-3-yl-thiazol-5-yl)-2,N-dimethyl-3-methylsulfanyl-propionamide] | – | – | – | pest or weed control at 200 ppm ([1]; sweetpotato whitefly-crawler): 80 to 100%; pest or weed control at 200 ppm [2]: 80 to 100%; pest or weed control at 200 ppm ([3]; green peach aphid): 80 to 100%
4 | CC(C[S+](C)[O-])C(=O)N(C)c1sc(-c2cccnc2)nc1Cl (stereo not drawn) [Compound 230] | – | – | – | pest or weed control at 200 ppm ([1]; sweetpotato whitefly-crawler): 80 to 100%; pest or weed control at 200 ppm [2]: 80 to 100%; pest or weed control at 200 ppm ([3]; green peach aphid): 80 to 100%
5 | CCN(C(=O)C(C)C)c1sc(-c2cccnc2)nc1C [Compound 233] | – | – | – | pest or weed control at 200 ppm ([1]; sweetpotato whitefly-crawler): 80 to 100%; pest or weed control at 200 ppm [2]: 80 to 100%; pest or weed control at 200 ppm ([3]; green peach aphid): 80 to 100%
6 | CCN(C(=O)C(C)C[S+](C)[O-])c1sc(-c2cccnc2)nc1C (stereo not drawn) [Compound 234] | – | – | – | pest or weed control at 200 ppm ([1]; sweetpotato whitefly-crawler): 80 to 100%; pest or weed control at 200 ppm [2]: 80 to 100%; pest or weed control at 200 ppm ([3]; green peach aphid): 80 to 100%
7 | CCN(C(=O)C(C)CS(C)(=O)=O)c1sc(-c2cccnc2)nc1C (stereo not drawn) [Compound 235] | – | – | – | BEMITA 200 ppm (Corrected % Control, rating) ([1]; sweetpotato whitefly-crawler): A (80-100); APHIGO 200 ppm (Corrected % Control, rating) [2]: A (80-100); MYZUPE 200 ppm (Corrected % Control, rating) ([3]; green peach aphid): A (80-100)
8 | CCN(C(=O)C(C)CSC)c1sc(-c2cncc(F)c2)nc1C (stereo not drawn) [Compound 240] | – | – | – | pest or weed control at 200 ppm ([1]; sweetpotato whitefly-crawler): 80 to 100%; pest or weed control at 200 ppm [2]: 80 to 100%; pest or weed control at 200 ppm ([3]; green peach aphid): 80 to 100%
9 | CCN(C(=O)C(C)(C)CS(C)(=O)=O)c1sc(-c2cccnc2)nc1C [Compound 250] | – | – | – | pest or weed control at 200 ppm ([1]; sweetpotato whitefly-crawler): < 80%; pest or weed control at 200 ppm [2]: < 80%; pest or weed control at 200 ppm ([3]; green peach aphid): 80 to 100%
10 | CCN(C(=O)C(C)C)c1sc(-c2cncc(F)c2)nc1C [Compound 253] | – | – | – | pest or weed control at 200 ppm ([1]; sweetpotato whitefly-crawler): 80 to 100%; pest or weed control at 200 ppm [2]: 80 to 100%; pest or weed control at 200 ppm ([3]; green peach aphid): 80 to 100%
11 | CSC(C)CC(=O)Nc1sc(-c2cccnc2)nc1Cl (stereo not drawn) [Compound 487] | 80 to 100 | 120 to 125 | 80 to 100 | –
12 | CSC(C)(C)CC(=O)Nc1sc(-c2cccnc2)nc1Cl [Compound 488] | 80 to 100 | 113 to 115 | 80 to 100 | –
13 | CCCC(C)(C)OC(=O)N(C)c1sc(-c2cccnc2)nc1C [Compound 491] | 80 to 100 | 65 to 69 | 80 to 100 | –
14 | CSCCC(=O)N(C(=O)OC(C)(C)C)c1sc(-c2cncc(F)c2)nc1C#N [Compound 494] | < 80 | 105 to 106 | < 80 | –
15 | CN(C(=O)OC(C)(C)C)c1sc(-c2cncc(F)c2)nc1I [Compound 497] | 80 to 100 | 70 to 71 | 80 to 100 | –
16 | C=CC(=O)Nc1sc(-c2cncc(F)c2)nc1C#N [Compound 502] | < 80 | 231 to 232 | < 80 | –
17 | CSCCC(=O)N(C)c1sc(-c2cncc(F)c2)nc1C#N [Compound 503] | < 80 | 97 to 98 | < 80 | –
18 | CN(C(=O)CC[S+](C)[O-])c1sc(-c2cncnc2)nc1Cl (stereo not drawn) [Compound 510] | 80 to 100 | 137 to 140 | 80 to 100 | –

Row | Structure (SMILES) | pest or weed control at 200 ppm ([1]; Abbott's correction formula) [%] | melting point [°C] | pest or weed control at 200 ppm ([3]; Abbott's correction formula) [%] | also measured
19 | CSCCC(=O)N(C)c1sc(-c2cnccc2F)nc1Cl [Compound 515] | < 80 | 74 to 76 | < 80 | –
20 | Cc1nc(-c2cncc(F)c2)sc1N(C)C(=S)NC1CC1 [Compound 519, 3-cyclopropyl-1-[2-(5-fluoro-pyridin-3-yl)-4-methyl-thiazol-5-yl]-1-methyl-thiourea] | < 80 | 117 to 119 | 80 to 100 | –
21 | C/C=C/C(=O)N(C)c1sc(-c2cccnc2)nc1Br [Compound 526] | 80 to 100 | 121 to 125 | 80 to 100 | –
22 | CCN(C(=O)c1cscn1)c1sc(-c2cccnc2)nc1Cl [Compound 529] | < 80 | 82 to 86 | 80 to 100 | –
23 | CCN(C(=O)C1(C)CC1(Cl)Cl)c1sc(-c2cccnc2)nc1Cl (stereo not drawn) [Compound 536] | < 80 | 144 to 146 | < 80 | –
24 | CCN(C(=O)C(C)Cn1nc(C)nc1C)c1sc(-c2cccnc2)nc1Cl (stereo not drawn) [Compound 541] | < 80 | 102 to 105 | 80 to 100 | –
25 | CCN(C(=O)c1cn(C)nc1C(F)(F)F)c1sc(-c2cccnc2)nc1Cl [Compound 547] | 80 to 100 | 110 to 111 | 80 to 100 | –
26 | CCN(C(=O)c1sc(C)nc1C(F)(F)F)c1sc(-c2cccnc2)nc1Cl [Compound 548] | 80 to 100 | 102 to 103 | 80 to 100 | –
27 | COc1ncc(-c2nc(Cl)c(N(C)C(=O)CCSC)s2)cc1F [Compound 551] | < 80 | 92 to 94 | < 80 | –
28 | COc1ncc(-c2nc(Cl)c(N(C)C(=O)CC[S+](C)[O-])s2)cc1F (stereo not drawn) [Compound 558] | < 80 | 132 to 135 | < 80 | –
29 | CCN(C(=O)c1cc(Cl)cc(Cl)c1)c1sc(-c2cccnc2)nc1Cl [Compound 564] | < 80 | 172 to 174 | < 80 | –
30 | CSCCN(C(=O)OC(C)(C)C)c1sc(-c2cccnc2)nc1C [Compound 567] | < 80 | 63 to 68 | 80 to 100 | –
31 | CCN(C(=O)c1cocn1)c1sc(-c2cccnc2)nc1Cl [Compound 570] | < 80 | 118 to 120 | 80 to 100 | –
32 | CCN(C(=O)c1cnn(C)c1C(F)(F)F)c1sc(-c2cccnc2)nc1Cl [Compound 577] | < 80 | 115 to 117 | 80 to 100 | –
33 | Cc1nc(-c2cncc(F)c2)sc1N(C)C(=O)C1CCCN(C(=O)OC(C)(C)C)C1 (stereo not drawn) [Compound 580] | 80 to 100 | 51 to 60 | < 80 | –
34 | Cc1nc(-c2cncc(F)c2)sc1N(C)C(=O)C1CCCN(C(=S)NC2CC2)C1 (stereo not drawn) [Compound 585] | < 80 | 190 to 192 | 80 to 100 | –
35 | CSCCC(=O)Nc1sc(-c2cccnc2)nc1SC [Compound 589, 3-(methylthio)-N-(4-(methylthio)-2-(pyridin-3-yl)thiazol-5-yl)propanamide] | < 80 | 72 to 74 | < 80 | –
